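Briefly, cells in 96-well plates were exposed to five compound concentrations for 48 h, and endpoints were estimated by linear interpolation. At the GI50, growth is halved.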 The source made the active and inactive calls. Cut-off read from the data, not from the text of the source: active = GI50 up to about 1.1 µM and inactive = higher.
Tests used:
Experiment in all cases: growth of human tumour cells (NCI), 48 h
BT-549 = test system: BT-549
CAKI-1 = test system: CAKI-1
DU-145 = test system: DU-145
HCC 2998 = test system: HCC 2998
HT-29 = test system: HT-29
K562 = test system: K562
LOX IMVI = test system: LOX IMVI
MDA-N = test system: MDA-N
Malme-3M = test system: Malme-3M
NCI-H226 = test system: NCI-H226
OVCAR-3 = test system: OVCAR-3
OVCAR-5 = test system: OVCAR-5
OVCAR-8 = test system: OVCAR-8
SF-295 = test system: SF-295
SK-MEL-28 = test system: SK-MEL-28
SNB-75 = test system: SNB-75
TK-10 = test system: TK-10
COLO 205 = test system: COLO 205
HL-60 = test system: HL-60
SF-539 = test system: SF-539

SMILES	GI50 (BT-549)	GI50 (CAKI-1)	GI50 (DU-145)	GI50 (HCC 2998)	GI50 (HT-29)	GI50 (K562)	GI50 (LOX IMVI)	GI50 (MDA-N)	GI50 (Malme-3M)	GI50 (NCI-H226)	GI50 (OVCAR-3)	GI50 (OVCAR-5)	GI50 (OVCAR-8)	GI50 (SF-295)	GI50 (SK-MEL-28)	GI50 (SNB-75)	GI50 (TK-10)	GI50 (COLO 205)	GI50 (HL-60)	GI50 (SF-539)
CC(CO)(CO)Nc1ncnc2ccccc12	> 100 µM (inactive)	> 100 µM (inactive)	> 100 µM (inactive)	> 100 µM (inactive)	> 100 µM (inactive)	> 100 µM (inactive)	> 100 µM (inactive)	> 100 µM (inactive)	> 100 µM (inactive)	> 100 µM (inactive)	> 100 µM (inactive)	> 100 µM (inactive)	> 100 µM (inactive)	> 100 µM (inactive)	> 100 µM (inactive)	> 100 µM (inactive)	> 100 µM (inactive)			
c1ccc2c(c1)ccc1ncccc12	47.1 µM (inactive)	85.9 µM (inactive)	> 100 µM (inactive)	> 100 µM (inactive)	> 100 µM (inactive)	> 100 µM (inactive)	> 100 µM (inactive)		> 100 µM (inactive)	> 100 µM (inactive)	> 100 µM (inactive)	> 100 µM (inactive)	> 100 µM (inactive)	> 100 µM (inactive)	> 100 µM (inactive)	> 100 µM (inactive)	> 100 µM (inactive)	> 100 µM (inactive)	> 100 µM (inactive)	> 100 µM (inactive)
N#Cc1c(NC(=S)NC(=O)c2ccccc2)nc2c(c1-c1ccccc1)CCC2	> 100 µM (inactive)	> 100 µM (inactive)	> 100 µM (inactive)		> 100 µM (inactive)	> 100 µM (inactive)	> 100 µM (inactive)	> 100 µM (inactive)	78.7 µM (inactive)		> 100 µM (inactive)	> 100 µM (inactive)	67 µM (inactive)	91.2 µM (inactive)		22.7 µM (inactive)	91 µM (inactive)	> 100 µM (inactive)	> 100 µM (inactive)	> 100 µM (inactive)
O=Cc1ccc(-c2cccc([N+](=O)[O-])c2)s1	81.1 µM (inactive)	> 100 µM (inactive)	61 µM (inactive)	> 100 µM (inactive)	> 100 µM (inactive)	72.1 µM (inactive)	> 100 µM (inactive)			67.5 µM (inactive)	> 100 µM (inactive)	> 100 µM (inactive)	80.9 µM (inactive)	> 100 µM (inactive)	> 100 µM (inactive)	70.8 µM (inactive)	> 100 µM (inactive)	> 100 µM (inactive)	64.4 µM (inactive)	> 100 µM (inactive)
COc1ccc(C2OC[C@H]3O[C@@H](OCc4ccccc4)[C@H](O)[C@@H](O)[C@@H]3O2)cc1 (stereo partly specified)	> 100 µM (inactive)	> 100 µM (inactive)	> 100 µM (inactive)	> 100 µM (inactive)	> 100 µM (inactive)	> 100 µM (inactive)	> 100 µM (inactive)	> 100 µM (inactive)		23.2 µM (inactive)	> 100 µM (inactive)	> 100 µM (inactive)	> 100 µM (inactive)	> 100 µM (inactive)	> 100 µM (inactive)	2.29 µM (inactive)	> 100 µM (inactive)	> 100 µM (inactive)		> 100 µM (inactive)
OCc1cc2c(ccc3sc4ccc5sc6ccc7ncccc7c6c5c4c32)s1	14.3 µM (inactive)	10.6 µM (inactive)	17.1 µM (inactive)		15.5 µM (inactive)	22.4 µM (inactive)	12.6 µM (inactive)	10.3 µM (inactive)		30.1 µM (inactive)	16.9 µM (inactive)	15.3 µM (inactive)	12.1 µM (inactive)	12.5 µM (inactive)	27.2 µM (inactive)	3.89 µM (inactive)	31.8 µM (inactive)	2.72 µM (inactive)	10.1 µM (inactive)	14.4 µM (inactive)
Cc1cc(C)c2c(O)cc(-c3ccc(F)cc3)nc2n1	65.8 µM (inactive)	33.6 µM (inactive)	66.1 µM (inactive)	31.3 µM (inactive)	39.2 µM (inactive)	32.1 µM (inactive)	45.6 µM (inactive)		42.9 µM (inactive)	35.6 µM (inactive)		80.5 µM (inactive)	76.7 µM (inactive)		37.3 µM (inactive)	27.2 µM (inactive)	95.1 µM (inactive)	32.1 µM (inactive)		> 100 µM (inactive)
Cc1ccc(OCC2OC(n3cnc4nc(N)nc(Cl)c43)CC2Oc2ccc(C)cc2)cc1 (stereo unspecified)	22.5 µM (inactive)	4.08 µM (inactive)	18 µM (inactive)	15.8 µM (inactive)	23.7 µM (inactive)		15.7 µM (inactive)	11.9 µM (inactive)	24.3 µM (inactive)	18.1 µM (inactive)	18.6 µM (inactive)	18.3 µM (inactive)	15.7 µM (inactive)	27.6 µM (inactive)	36 µM (inactive)	11 µM (inactive)	31.1 µM (inactive)	16.8 µM (inactive)		23.3 µM (inactive)
O=C(NN=C1CCCCC1)NN=C1CCCCC1	> 100 µM (inactive)	> 100 µM (inactive)	> 100 µM (inactive)		> 100 µM (inactive)	> 100 µM (inactive)	> 100 µM (inactive)	> 100 µM (inactive)	> 100 µM (inactive)		> 100 µM (inactive)	> 100 µM (inactive)	> 100 µM (inactive)	> 100 µM (inactive)	> 100 µM (inactive)	> 100 µM (inactive)	> 100 µM (inactive)	> 100 µM (inactive)		
COc1ccc2c(c1)c1c(C)c3cnccc3c(C)c1n2CCCN	1.29 µM (inactive)		0.0603 µM (active)	0.457 µM (active)	0.117 µM (active)		0.0556 µM (active)	0.114 µM (active)	0.681 µM (active)		0.453 µM (active)	0.431 µM (active)	0.178 µM (active)	0.257 µM (active)	0.458 µM (active)	0.378 µM (active)	0.248 µM (active)	0.177 µM (active)		0.405 µM (active)
C[C@@H]1OC(=O)/C(=C\N(C)C)[C@H]2CC(=O)N(CCc3cn(S(=O)(=O)C(F)(F)F)c4ccccc34)C[C@H]12	> 100 µM (inactive)	> 100 µM (inactive)		> 100 µM (inactive)		> 100 µM (inactive)	> 100 µM (inactive)	> 100 µM (inactive)	> 100 µM (inactive)	> 100 µM (inactive)	> 100 µM (inactive)	> 100 µM (inactive)		> 100 µM (inactive)	> 100 µM (inactive)	> 100 µM (inactive)	> 100 µM (inactive)	> 100 µM (inactive)		> 100 µM (inactive)
O=P1(c2ccccc2)C2=CCC=CC2C(c2ccccc2)N1Cc1ccccc1 (stereo unspecified)	17.4 µM (inactive)	13.7 µM (inactive)	17.5 µM (inactive)		11.6 µM (inactive)	16.1 µM (inactive)		20.9 µM (inactive)	17.8 µM (inactive)			> 100 µM (inactive)	19.6 µM (inactive)	13.5 µM (inactive)			20 µM (inactive)	15.5 µM (inactive)	20.4 µM (inactive)	17.4 µM (inactive)
O=C1N/C(=N/N=C\c2ccccc2)N/C1=C/c1ccc(Cl)cc1	16.5 µM (inactive)	33.2 µM (inactive)	28.6 µM (inactive)	15.9 µM (inactive)	33 µM (inactive)	34 µM (inactive)	26.1 µM (inactive)	34.3 µM (inactive)	20.8 µM (inactive)	15.5 µM (inactive)	17.4 µM (inactive)	26.4 µM (inactive)	21.7 µM (inactive)	25.7 µM (inactive)	39 µM (inactive)	18.7 µM (inactive)	42.3 µM (inactive)	32.2 µM (inactive)		23.9 µM (inactive)
C=C1CC[C@H]2C(=O)OC(c3ccoc3)C[C@]2(C)C/C=C\C=C/1C(=O)OC (stereo partly specified)	> 25 µM (inactive)	> 25 µM (inactive)		> 25 µM (inactive)	> 25 µM (inactive)	> 25 µM (inactive)	> 25 µM (inactive)	> 25 µM (inactive)	> 25 µM (inactive)	> 25 µM (inactive)	13.9 µM (inactive)	> 25 µM (inactive)	> 25 µM (inactive)	> 25 µM (inactive)	> 25 µM (inactive)	24 µM (inactive)	> 25 µM (inactive)	> 25 µM (inactive)		> 25 µM (inactive)
Cc1sc2nc3n(c(=O)c2c1C)N=CN(c1ccc(F)cc1)C3	> 100 µM (inactive)	> 100 µM (inactive)	> 100 µM (inactive)	59.6 µM (inactive)	> 100 µM (inactive)	> 100 µM (inactive)	> 100 µM (inactive)	> 100 µM (inactive)	25 µM (inactive)	> 100 µM (inactive)	> 100 µM (inactive)	> 100 µM (inactive)	65.6 µM (inactive)	72.9 µM (inactive)	> 100 µM (inactive)	42.4 µM (inactive)	> 100 µM (inactive)	> 100 µM (inactive)		
C(/C=N/c1ccccc1)=C(/Nc1ccccc1)c1ccc2ccccc2c1	1.08 µM (active)	0.667 µM (active)	2.02 µM (inactive)		1.77 µM (inactive)	0.897 µM (active)	1.53 µM (inactive)		1.78 µM (inactive)	1.77 µM (inactive)	1.46 µM (inactive)	2.51 µM (inactive)	3.61 µM (inactive)	1.47 µM (inactive)	0.231 µM (active)	1.64 µM (inactive)	1.45 µM (inactive)	1.85 µM (inactive)	1.5 µM (inactive)	1.83 µM (inactive)

— ChEMBL document CHEMBL1201862, “PubChem BioAssay data set” (2004)
